{"source": "patent US10870713B2", "about": "“Procatalyst and polymerization process using the same” (Dow Global Technologies LLC, priority 2015, dated 2020)", "key": {"[1]": {"assay": "Batch polymerization of ethylene and 1-octene in a Parr reactor (catalyst efficiency)", "conditions": "reactor 147° C.; ISOPAR-E 1320 g; 1-octene 250 g; ethylene 410 psi; 10 min; procatalyst:activator 1:1.2; procatalyst:MMAO 1:50", "from_the_text": "The procatalysts shown above were used to polymerize ethylene and 1-octene in a Parr batch polymerization reactor. All feeds were passed through columns of alumina and Q-5 catalyst (available from Engelhard Chemicals Inc.) prior to introduction into the polymerization reactor. Procatalyst and activator solutions were handled in a glove box under nitrogen atmosphere prior to addition to the polymerization reactor.\nTable 2 illustrates the batch polymerizations results for each of C1 and 11-12 under the following conditions: reactor temperature: 147° C.; ISOPAR-E: 1320 g; 1-octene: 250 g; ethylene pressure: 410 psi; Run time: 10 min; procatalyst to activator ratio is 1:1.2; activator=[HNMe(C18H37)2][B(C6F5)4]; procatalyst to MMAO ratio is 1:50; […]\nThe catalyst efficiency is calculated by dividing the number of grams of the polyolefin copolymer prepared by the total number of grams of metal M of ingredient (a) employed (i.e., metal M of the at least one metal-ligand complex of formula (I)) (i.e., catalyst efficiency=g polyolefin copolymer prepared/g metal M of metal-ligand complex(es) of formula (I) employed)."}, "[2]": {"assay": "Solubility testing of procatalysts in aliphatic hydrocarbon solvents", "format": "physicochemical", "experimental": "Hexanes (10 mL) was added to this material and the solution was allowed to settle overnight. 5.03 grams of the clear supernatant hexanes was removed from the vial, then the hexanes was removed from this clear solution to leave behind 205 mg of product.\nHexanes (10 mL) was added to this material and the solution was allowed to settle overnight. 5.1 grams of the clear supernatant hexanes was removed from the vial, then the hexanes was removed from this clear solution to leave behind 140 mg of product.\nAbout 950 mg of pre-catalyst used. Added ISOPAR-E (40 mL). Swirled solution then allowed insoluble material to settle to the bottom of the jar overnight. Removed 5.06 grams of ISOPAR-E solution into a vial. Solvent was removed and 120 mg of pre-catalyst was obtained.\nTo 72.3 mg of the solid in a vial was added 0.9 mL of ISOPAR E. The solution was stirred for about 1 h. The mixture was filtered and the solution was weighted (0.2934 g).\nA 20-mL vial was charged with 82.0 mg of the Hf-complex and 0.8 mL of ISOPAR E. The mixture was stirred for 2 h and it was filtered via syringe filter. The colorless solution was weight and then concentrated under vacuum for 3 h. The white solid was weight to obtained 0.0217 g for a 6.2 w/w % solubility.\nTo the solid was added 0.2198 g of ISOPAR E and stirred for 1 hour. The solid completely dissolved to indicate a 9.5 wt % solubility in ISOPAR E.\nTo the Hf-complex was added 4 mL of hexane, and the solution was stirred for 4 hours. The solution was filtered via syringe to provide a weight of 2.0638 g. This solution was concentrated under vacuum to afford 0.3228 g of the solid 17 indicative of a 15.6 wt % solubility in hexanes. […]\nSolubility was determined by either first forming a saturated solution of the procatalyst in one or more of the solvents as shown in Table 1. […] A portion of the clear supernatant is removed, and the mass is recorded. […] The mass of the resulting procatalyst that was in solution is recorded, allowing for calculation of a w/w % solubility in the indicated solvent. […]"}}, "data": [{"smiles": "Cc1cc2c(c(-n3c4ccccc4c4ccccc43)c1)[O][Hf-2]13([CH3])([CH3])[O]c4c(cc(C)cc4-n4c5ccccc5c5ccccc54)-c4ccccc4[O+]1C[C@@H]1CCCCC1C[O+]3c1ccccc1-2", "note": "(stereo partly shown) [Procatalyst C1]", "values": [{"measurement": "Efficiency", "setting": "[1]", "value": "826,377 g polyolefin copolymer prepared/g metal M"}, {"measurement": "wt/wt % Solubility, ISOPAR-E", "setting": "[2]; solvent ISOPAR-E", "value": 1.2, "unit": "wt/wt %"}, {"measurement": "wt/wt % Solubility, Hexanes", "setting": "[2]; solvent hexanes", "value": 0.5, "unit": "wt/wt %"}, {"measurement": "wt/wt % Solubility, Methylcyclohexane", "setting": "[2]; solvent methylcyclohexane", "value": 1.7, "unit": "wt/wt %"}]}]}
